This note sets out measurements from article PMC5371667, “Targeting Bile Acid Receptors: Discovery of a Potent and Selective Farnesoid X Receptor Agonist as a New Lead in the Pharmacological Approach to Liver Diseases” (Frontiers in Pharmacology, 2017).

Assay [1] deals with T1, hFXR (Homo sapiens, UniProt Q96RI1).
T1 construct: expressed in transfected cells; host or cells: HepG2
T1 sequence (Q96RI1 1-486): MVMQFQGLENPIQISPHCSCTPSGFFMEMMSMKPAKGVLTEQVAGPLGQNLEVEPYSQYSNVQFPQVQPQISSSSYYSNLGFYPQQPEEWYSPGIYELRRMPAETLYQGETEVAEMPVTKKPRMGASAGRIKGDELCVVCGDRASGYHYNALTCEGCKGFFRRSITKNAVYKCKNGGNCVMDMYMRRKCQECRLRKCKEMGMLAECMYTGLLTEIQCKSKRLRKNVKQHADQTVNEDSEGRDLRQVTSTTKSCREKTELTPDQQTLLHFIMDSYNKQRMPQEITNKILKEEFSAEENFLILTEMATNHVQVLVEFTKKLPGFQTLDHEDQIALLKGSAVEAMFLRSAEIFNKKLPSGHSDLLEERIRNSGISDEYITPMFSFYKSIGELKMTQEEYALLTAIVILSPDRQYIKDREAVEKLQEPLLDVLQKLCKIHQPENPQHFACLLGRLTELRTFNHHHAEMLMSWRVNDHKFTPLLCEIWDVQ
T1 sequence (P19793 1-462 partner): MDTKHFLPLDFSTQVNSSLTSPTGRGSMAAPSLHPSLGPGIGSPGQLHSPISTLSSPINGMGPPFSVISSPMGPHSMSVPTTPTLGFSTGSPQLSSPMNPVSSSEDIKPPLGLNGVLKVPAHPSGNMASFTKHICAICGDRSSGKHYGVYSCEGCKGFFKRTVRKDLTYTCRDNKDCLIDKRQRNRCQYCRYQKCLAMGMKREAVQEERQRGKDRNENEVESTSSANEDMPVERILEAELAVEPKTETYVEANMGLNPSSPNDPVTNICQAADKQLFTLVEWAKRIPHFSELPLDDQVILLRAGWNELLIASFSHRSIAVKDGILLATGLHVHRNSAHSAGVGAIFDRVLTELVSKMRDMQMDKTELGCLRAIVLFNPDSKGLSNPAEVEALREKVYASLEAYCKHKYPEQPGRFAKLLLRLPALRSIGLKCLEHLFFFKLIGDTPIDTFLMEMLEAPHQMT
The assay is described as follows: FXR transactivation on HepG2 cells (luciferase reporter). It counts as cell-based. On the procedure: HepG2 (HB, 8065 from ATCC), an immortalized human epatocarcinoma cell line, was cultured and maintained at 37°C and 5% CO2 in E-MEM additioned with 10% FBS, 1% glutamine, and 1% penicillin/streptomycin. For FXR mediated transactivation, HepG2 cells were plated at 5 × 10^4 cells/well in a 24 well plate. Cells were transfected with 200 ng of the reporter vector p(hsp27)-TK-LUC containing a FXR response element (IR1) cloned from the promoter of heat shock protein 27 (hsp27), 100 ng of pSG5-FXR, 100 ng of pSG5-RXR, and 100 ng of pGL4.70 (Promega), a vector encoding the human Renilla gene. For GPBAR1 mediated transactivation, HepG2 cells were plated at 5 × 10^4 cells/well in a 24 well-plate and transfected with 200 ng of pGL4.29 (Promega), a reporter vector containing a cAMP response element (CRE) that drives the transcription of the luciferase reporter gene luc2P, with 100 ng of pCMVSPORT6-human GPBAR1, and with 100 ng of pGL4.70 Renilla. […]. TLCA (10 μM) was used as a positive control for GPBAR1 activity.
HepG2 cells were transfected as described above and then treated with increasing concentrations of compounds. At 18 h post stimulations, cellular lysates were assayed for luciferase and Renilla activities using the Dual-Luciferase Reporter assay system (E1980, Promega). Luminescence was measured using Glomax 20/20 luminometer (Promega). Luciferase activities were normalized with Renilla activities.
(In general: In a reporter assay the amount or activity of a reporter protein is the signal.)

The test system of assay [2] is FXR target genes in liver. The assay is described as follows: Hepatic FXR target gene expression in C57BL6 mice (RT-PCR). The conditions noted are these: 50 mg/kg per os, p < 0.05 versus control mice. It counts as in vivo. How it is done: HepG2 cells were plated at 1 × 10^6 cells/well in a six well plate. After an overnight incubation, cells were starved and then stimulated for 18 h with compound 2 at 1 μM. Total RNA was isolated from HepG2 cells or liver tissues using the TRIzol reagent according to the manufacturer’s specifications (Invitrogen). One microgram of purified RNA was treated with DNase-I and reverse transcribed with Superscript II (Invitrogen). For Real Time PCR, 10 ng template was dissolved in 25 μL containing 200 nmol/L of each primer and 12.5 μL of 2× SYBR FAST Universal ready mix (Invitrogen). All reactions were performed in triplicate, and the thermal cycling conditions were as follows: 2 min at 95°C, followed by 40 cycles of 95°C for 20 s and 60°C for 30 s in StepOnePlus (Applied Biosystems). The relative mRNA expression was calculated accordingly to the Ct method. Primers were designed using the software PRIMER3^1 using published data obtained from the NCBI database. Forward and reverse primer sequences were the following: human GAPDH, […] and […]; human BSEP, […] and […]; human OSTα, […] and […]; human SHP, […] and […]; mouse NTCP, […] and […]; mouse CYP7A1, […] and […]; mouse FGF21, […] and […]; mouse GAPDH, […] and […]; mouse BSEP, […] and […]; mouse OSTα, […] and […]; mouse SHP, […] and […].
C57BL6 male mice were from Harlan Nossan (Udine, Italy). The colonies were maintained in the animal facility of University of Perugia. Mice were housed under controlled temperatures (22 °C) and photoperiods (12:12-hour light/dark cycle), allowed unrestricted access to standard mouse chow and tap water and allowed to acclimate to these conditions for at least 5 days before inclusion in an experiment. A total number of eight mice were used in this study. The study was conducted in agreement with the Italian law and the protocol was approved by Ethical Committee of University of Perugia and by a National Committee of Ministry of Health (permission N° 42/2014 B). The health and body conditions of the animals were monitored daily by the veterinarian in the animal facility. At the day of sacrifice mice were deeply anesthetized with a mixture of […]/xylazine at a dose of 50 mg/Kg.

For orientation: EC50 means the concentration at which the effect is half-maximal. The low end stands for an effect from little substance, the high end for a need for much substance. `CC[C@H]1[C@@H](O)[C@@H]2[C@H](CC[C@]3(C)[C@@H]([C@H](C)CCC(=O)O)CC[C@@H]23)[C@@]2(C)CC[C@H](N=[N+]=[N-])C[C@@H]12` [compound 2, 3β-azido-6α-ethyl-7α-hydroxy-5β-cholan-24-oic acid] gave an EC50 in assay [1] (10 nM to 25 μM, 18 h) of 846 nM. The “FXR transactivation compared with 6-ECDCA” value in assay [1] (10 μM) is on record as “equipotent with 6-ECDCA”. In assay [2], the “relative hepatic mRNA expression of BSEP” value is reported as “significantly up-regulated”, the “relative hepatic mRNA expression of CYP7A1” value is given as “downregulated”, the “relative hepatic mRNA expression of FGF21” value is “significantly up-regulated” and the “relative hepatic mRNA expression of OSTα” value was “significantly up-regulated”. In addition, the “relative hepatic mRNA expression of SHP” value in assay [2] is listed as “significantly up-regulated”.
